For experiment [1], the system named is NIH-3T3 fibroblast viability, Alamar Blue fluorescence, 48 h. Kind of experiment: cytotoxicity in NIH-3T3 fibroblasts, dose response, cytotoxicity control for antifungal single agent project, cell-based, Alamar Blue, cherry-pick (AID 588634).
Test in experiment [2]: as above
The note with it: NIH-3T3 fibroblast viability, Alamar Blue fluorescence, 48 h; at 26 µM (top of the series). A general note: Alamar Blue is a resazurin reagent that responds to reducing activity.

Structures are written as SMILES. Activity calls are given as the source filed them.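 How the source made its calls: active means compounds whose fitted half-maximal toxic concentration is no more than twice their top tested dose; inconclusive means flat fit with 30 to 70% signal loss, or poor fit; inactive means the rest.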

For the molecule `CCCCC(=O)NC(c1ccc(N(CC)CC)cc1)c1ccc2cccnc2c1O` (stereo not drawn), the AC50 in experiment [1] was 1250 nM.

Take `O=C(N/N=C/c1c(O)ccc2ccccc12)c1cccc(C(F)(F)F)c1`: in experiment [1], the AC50 is 4340 nM.

With `Oc1c(C(c2ccc(Cl)cc2)N2CCCC2)cc(Cl)c2cccnc12` (stereo not drawn), the AC50 in experiment [1] was 1470 nM.

Consider `Oc1c(C(Nc2nccs2)c2ccc(C(F)(F)F)cc2)ccc2cccnc12` (stereo not drawn), for which the AC50 in experiment [1] was 1740 nM.

On to `CCN1/C(=C/C=C/c2oc3ccc(-c4ccccc4)cc3[n+]2CC)Oc2ccc(-c3ccccc3)cc21`, for which, in experiment [2], the activity change, negative = toxicity was 360% (inactive).

For the molecule `Oc1c(C(Nc2nc3ccccc3s2)c2ccco2)ccc2cccnc12` (stereo not drawn), the AC50 in experiment [1] was 1850 nM.

Consider `CCCCC(=O)NC(c1ccc(Cl)cc1)c1ccc2cccnc2c1O` (stereo not drawn), for which the AC50 in experiment [1] is 1090 nM.

Regarding `O=c1ccc(N=Nc2ccccc2)ccc1O`, the AC50 in experiment [1] is 1600 nM.

For the molecule `COc1cccc(N=Nc2ccc(O)c3ncccc23)c1`, in experiment [1], the concentration at half-maximal activity (AC50) was 279 nM.

For `O=[N+]([O-])c1ccc(O)c(/C=N/Nc2ccc(Cl)nn2)c1`, the AC50 in experiment [1] is 1600 nM.

For the molecule `COc1cccc(/C=N/Nc2ncnc3scc(-c4ccccc4)c23)c1O`, the AC50 in experiment [1] is 2070 nM.

Take `O=Nc1c(-c2cccc([N+](=O)[O-])c2)nc2ncccn12`: the AC50 in experiment [1] is 9990 nM.

Take `O=[N+]([O-])c1cc(CN2CCN(c3ccccc3)CC2)c(O)c2ncccc12`: the AC50 in experiment [1] was 109 nM.

For the molecule `Oc1ccc(N=Nc2ccc3c(c2)OCCO3)c2ncccc12`, the concentration at half-maximal activity (AC50) in experiment [1] is 702 nM.

As to `CCOc1ccc(N=Nc2ccc(O)c3ncccc23)cc1`, in experiment [1], the AC50 was 289 nM.

Regarding `CN1CCN(C(c2ccc(C(F)(F)F)cc2)c2cc(Cl)c3cccnc3c2O)CC1` (stereo not drawn), the AC50 in experiment [1] is 1960 nM.

On to `COc1cccc(N=Nc2ccc3cccnc3c2O)c1`, for which the AC50 in experiment [1] is 712 nM.

On to `CCOC(=O)N1C(=O)C2(CCCCC2)N(c2ccc(C)cc2)C1=S`, for which the activity change, negative = toxicity in experiment [2] is -0.005% (inactive).

For `Cc1ccc(C(=O)c2coc3c2C(=O)C(=O)c2ccccc2-3)cc1`, the AC50 in experiment [1] is 8170 nM.

With `O=C(Oc1c(Cl)cc(Cl)c2cccnc12)c1cccs1`, the AC50 in experiment [1] is 659 nM.

On to `Oc1ccc(N=Nc2ccc3c(c2)OCCO3)c2cccnc12`, for which the AC50 in experiment [1] was 3140 nM.

Consider `Cc1cc(NC(c2ccc(Cl)cc2)c2ccc3cccnc3c2O)no1` (stereo not drawn), for which, in experiment [1], the concentration at half-maximal activity (AC50) is 3660 nM.

As for `C/C(=N\NC(=O)c1cc2ccccc2cc1O)c1ccccn1`, the AC50 in experiment [1] was 1040 nM.

As for `CCN(CC)S(=O)(=O)c1cc(OC)ccc1N=Nc1ccc(O)c2ncccc12`, the AC50 in experiment [1] was 753 nM.

Consider `Oc1c(CN2CCN(c3ccccc3)CC2)cc(Br)c2cccnc12`, for which the AC50 in experiment [1] is 1390 nM.

In the case of `CCCCC(=O)NC(c1ccco1)c1cc(Cl)c2cccnc2c1O` (stereo not drawn), the AC50 in experiment [1] is 705 nM.

Consider `O=C(Oc1c(Cl)cc(Cl)c2cccnc12)c1ccco1`, for which the AC50 in experiment [1] was 409 nM.

Turning to `COc1ccc(C)cc1N=Nc1ccc(O)c2ncccc12`, the AC50 in experiment [1] is 303 nM.

Consider `C(C#CCCCCCCCCC[n+]1ccccc1)#CCCCCCCCCC[n+]1ccccc1`, for which the activity change, negative = toxicity in experiment [2] is -33.3% (inactive).

Turning to `Oc1c(CN2CCN(c3ccc(F)cc3)CC2)cc(Cl)c2cccnc12`, the AC50 in experiment [1] was 1290 nM.

For `O=Cc1ccc(O)c2ncccc12`, the AC50 in experiment [1] was 913 nM.

As for `CN1CCN(C(c2ccc(C(F)(F)F)cc2)c2ccc3cccnc3c2O)CC1` (stereo not drawn), in experiment [1], the AC50 was 852 nM.

Regarding `O=C(N/N=C/c1cc2c3c(c1O)CCCN3CCC2)c1ccccc1O`, the AC50 in experiment [1] was 6370 nM.

By AC50 is commonly meant the concentration at which the activity in the assay is half-maximal.

(Values after PubChem BioAssay AID588634 (Broad Institute, 2011).)
